Consider 1 molecule from PMC3919815, “Anti-Tumor Effects of Novel 5-O-Acyl Plumbagins Based on the Inhibition of Mammalian DNA Replicative Polymerase Activity” (PLoS ONE, 2014).

Molecules are shown by their SMILES. Where two headings read alike, the source gives them in different places. A value given as a limit tells only on which side of the number the result lay.

In experiment [1] the target is T1, Calf TdT (Bos taurus, UniProt P06526).
T1 construct: purchased Takara Bio Inc. (Kyoto, Japan)
As to the kind of experiment: TdT activity inhibition. It counts as biochemical. Particulars: 0.05 units enzyme; mean ± SD (n = 3). From the text:
Pol α was purified from calf thymus by immunoaffinity column chromatography as described by Tamai et al.. Recombinant rat pol β was purified from Escherichia coli JMpβ5 as described by Date et al.. The human pol γ catalytic gene was cloned into pFastBac. Histidine-tagged enzyme was expressed using the BACTO-BAC HT Baculovirus Expression System according to the manufacturer's instructions (Life Technologies, Frederick, MD, USA) and purified using ProBound resin (Invitrogen Japan, Tokyo Japan). Human pols δ and ε were purified by nuclear fractionation of human peripheral blood cancer cells (Molt-4) using the second subunit of pol δ and ε-conjugated affinity column chromatography, respectively. A truncated form of human pol η (residues 1–511) tagged with His6 at its C-terminal was expressed in E. coli cells and purified as described by Kusumoto et al.. A recombinant mouse pol ι tagged with His6 at its C-terminal was expressed and purified by Ni–NTA column chromatography. […]
The chemically synthesized 5-O-acyl plumbagins (2a–j) were dissolved in distilled dimethyl sulfoxide (DMSO) to various concentrations and sonicated for 30 s. […] Activity without inhibitor was considered 100%, and the relative activity was determined for each inhibitor concentration. […]

Experiment [2] concerns the target Calf primase of pol α (Bos taurus, UniProt A0A3Q1MF00). Description: Other DNA metabolic enzyme assay. It counts as biochemical. On the procedure:
(§1) The activities of calf primase of pol α, T7 RNA polymerase, mouse inosine-5′-[…] (IMP) dehydrogenase (type II), T4 polynucleotide kinase, and bovine deoxyribonuclease I were measured in standard assays according to the manufacturer's specifications, as described by Tamiya-Koizumi et al., Nakayama and Saneyoshi, Mizushina et al., Soltis et al., and Lu and Sakaguchi, respectively.

Experiment [3] deals with Mouse IMP dehydrogenase (type II) (Mus musculus, UniProt P24547). Description: Other DNA metabolic enzyme assay. Type of experiment: biochemical. On the procedure:
as §1

Experiment [4] deals with T2, Bovine deoxyribonuclease I (Bos taurus, UniProt P00639).
T2 construct: Bovine pancreas deoxyribonuclease I was obtained from Stratagene Cloning Systems; purchased Stratagene Cloning Systems (La Jolla, CA, USA); host or cells: bovine pancreas
T2 sequence (P00639 23-282): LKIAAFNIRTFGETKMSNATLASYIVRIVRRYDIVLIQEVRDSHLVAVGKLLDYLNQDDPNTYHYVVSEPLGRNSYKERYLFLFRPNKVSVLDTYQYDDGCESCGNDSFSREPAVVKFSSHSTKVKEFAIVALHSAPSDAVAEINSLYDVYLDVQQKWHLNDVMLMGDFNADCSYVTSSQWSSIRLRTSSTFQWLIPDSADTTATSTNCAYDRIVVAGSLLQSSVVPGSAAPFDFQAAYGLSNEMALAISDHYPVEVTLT
Description: Other DNA metabolic enzyme assay. Type of experiment: biochemical.
From the text: (§2) Pol α was purified from calf thymus by immunoaffinity column chromatography as described by Tamai et al.. Recombinant rat pol β was purified from Escherichia coli JMpβ5 as described by Date et al.. The human pol γ catalytic gene was cloned into pFastBac. Histidine-tagged enzyme was expressed using the BACTO-BAC HT Baculovirus Expression System according to the manufacturer's instructions (Life Technologies, Frederick, MD, USA) and purified using ProBound resin (Invitrogen Japan, Tokyo Japan). Human pols δ and ε were purified by nuclear fractionation of human peripheral blood cancer cells (Molt-4) using the second subunit of pol δ and ε-conjugated affinity column chromatography, respectively. A truncated form of human pol η (residues 1–511) tagged with His6 at its C-terminal was expressed in E. coli cells and purified as described by Kusumoto et al.. A recombinant mouse pol ι tagged with His6 at its C-terminal was expressed and purified by Ni–NTA column chromatography. A truncated form of pol κ (residues 1–560) with 6× His-tags attached at the C-terminus was overexpressed in E. coli and purified as described by Ohashi et al.. Recombinant human His-pol λ was overexpressed and purified according to a method described by Shimazaki et al.. Recombinant human His-pol μ was overexpressed in E. coli BL21 and purified using Glutathione Sepharose 4B (GE Healthcare Bio-Science Corp., Piscataway, NJ, USA) column chromatography according to the method for pol λ preparation by Shimazaki et al.. Pol α from a higher plant, cauliflower, was purified from the inflorescence structure according to the methods outlined by Sakaguchi et al.. Recombinant rice (Oryza sativa L. cv. Nipponbare) pol λ tagged with His6 at the C-terminus was expressed in E. coli and purified as described by Uchiyama et al.. Calf TdT, Taq pol, T4 pol, T7 RNA polymerase, and T4 polynucleotide kinase were purchased from Takara Bio Inc. (Kyoto, Japan). The Klenow fragment of pol I from E. coli was purchased from Worthington Biochemical Corp. (Freehold, NJ, USA). Bovine pancreas deoxyribonuclease I was obtained from Stratagene Cloning Systems (La Jolla, CA, USA).
as §1

Experiment [5] addresses T3, T7 RNA polymerase (Escherichia phage T7, UniProt P00573).
T3 construct: purchased Takara Bio Inc. (Kyoto, Japan)
Description: Other DNA metabolic enzyme assay. It counts as biochemical.
From the text: as §2, §1

In experiment [6] the target is T4, T4 polynucleotide kinase (Enterobacteria phage T4, UniProt P06855).
T4 construct: purchased Takara Bio Inc. (Kyoto, Japan)
T4 sequence (P06855 whole entry): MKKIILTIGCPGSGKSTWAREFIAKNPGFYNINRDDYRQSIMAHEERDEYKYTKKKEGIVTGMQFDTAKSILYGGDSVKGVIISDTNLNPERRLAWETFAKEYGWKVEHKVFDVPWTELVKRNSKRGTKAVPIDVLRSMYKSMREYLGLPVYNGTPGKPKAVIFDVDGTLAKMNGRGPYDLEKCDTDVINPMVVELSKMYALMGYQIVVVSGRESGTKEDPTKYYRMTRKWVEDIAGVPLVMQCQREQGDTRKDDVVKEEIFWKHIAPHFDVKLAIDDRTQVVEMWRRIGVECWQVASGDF
Description: Other DNA metabolic enzyme assay. It counts as biochemical.
From the text: as §2, §1

The test system of experiment [7] is mammalian pols. As to the kind of experiment: DNA polymerase activity inhibition, summary over the panel. It counts as biochemical.
From the text: as §2
The reaction mixtures for calf pol α, rat pol β, plant pol α, and prokaryotic pols have been described previously, [35]; those for pol γ as well as pols δ and ε were previously described by Umeda et al. and Ogawa et al., respectively. Those for pols η, ι, and κ were the same as for pol α, and those for pols λ and μ were the same as for pol β. For the pol reactions, poly(dA)/oligo(dT)18 (A/T, 2/1) and dTTP were used as the DNA template-primer substrate and nucleotide (dNTP; 2′-deoxynucleoside-5′-triphosphate) substrate, respectively. For the TdT reactions, oligo(dT)18 (3′-OH) and dTTP were used as the DNA primer substrate and nucleotide substrate, respectively.
The chemically synthesized 5-O-acyl plumbagins (2a–j) were dissolved in distilled dimethyl sulfoxide (DMSO) to various concentrations and sonicated for 30 s. Subsequently, 4 µL aliquots were mixed with 16 µL of each enzyme (0.05 units) in 50 mM Tris-HCl at pH 7.5, containing 1 mM dithiothreitol, 50% glycerol (by vol), and 0.1 mM ethylenediaminetetraacetic acid and held at 0°C for 10 min. These inhibitor-enzyme mixtures in 8 µL volumes were next added to 16 µL of enzyme standard reaction mixture and incubated at 37°C for 60 min, except for Taq pol, which was incubated at 74°C for 60 min. Activity without inhibitor was considered 100%, and the relative activity was determined for each inhibitor concentration. One unit of pol activity was defined as the amount of each enzyme that catalyzed the incorporation of 1 nmol dTTP into synthetic DNA template primers in 60 min, at 37°C, and under standard reaction conditions, [35].

Experiment [8] relates to HT-29 solid tumors. As to the kind of experiment: In vivo anti-tumor assay. On the set-up: species or system nude mice. An excerpt: Male BALB/c nu/nu mice at 5 week of age (18 g) were purchased from Japan SLC, Inc. (Shizuoka, Japan). Mice receiving standard laboratory chow and water ad libitum were acclimatized for 1 week before inoculation with cancer cells. For in vivo experiments, human colon HT-29 cells (1×10^7 cells/mouse) were subcutaneously injected into nude mice. Mice bearing solid tumors that had grown to approximately 100 mm^3 in volume (tumor volume = length×width×height) at 12 days after implantation were used for the assessment of anti-tumor effects. They were divided randomly into five groups (n = 6/group). One of the five groups was a control group injected with 0.1 mL of phosphate buffered saline (PBS) alone, and other groups were injected with vitamin K3 (3), juglone (4), C18:1-acyl juglone (5f), and C18:1-acyl plumbagin (2f) dissolved in PBS at a dose of 5 mg/kg. The above administrations all took place between days 12–39 subsequent to implantation. All mice were injected subcutaneously 14 times at […] with the compound and PBS alone (control). Tumor growth was measured at 1-day intervals for 40 days after implantation. At the end of the in vivo anti-tumor assay, some mice treated with the test compounds and PBS were independently examined to observe major organs such as lung, heart, spleen, stomach, liver, pancreas, kidney, intestine, and brain.

Sequence of Mouse IMP dehydrogenase (type II) (P24547 whole entry): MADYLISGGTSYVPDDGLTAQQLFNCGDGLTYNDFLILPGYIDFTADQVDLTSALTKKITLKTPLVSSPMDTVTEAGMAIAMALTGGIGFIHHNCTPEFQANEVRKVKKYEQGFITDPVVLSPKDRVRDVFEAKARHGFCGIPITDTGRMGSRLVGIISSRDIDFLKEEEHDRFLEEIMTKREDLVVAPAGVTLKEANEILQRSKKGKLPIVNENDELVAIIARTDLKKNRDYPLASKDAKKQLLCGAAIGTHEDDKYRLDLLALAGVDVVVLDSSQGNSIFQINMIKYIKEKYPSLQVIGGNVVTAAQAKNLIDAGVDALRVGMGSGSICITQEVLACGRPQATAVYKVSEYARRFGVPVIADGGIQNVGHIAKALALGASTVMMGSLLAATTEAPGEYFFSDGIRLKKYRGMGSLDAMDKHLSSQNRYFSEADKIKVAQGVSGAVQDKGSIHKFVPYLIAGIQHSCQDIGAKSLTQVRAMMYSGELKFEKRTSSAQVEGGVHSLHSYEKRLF
T3 sequence (P00573 whole entry): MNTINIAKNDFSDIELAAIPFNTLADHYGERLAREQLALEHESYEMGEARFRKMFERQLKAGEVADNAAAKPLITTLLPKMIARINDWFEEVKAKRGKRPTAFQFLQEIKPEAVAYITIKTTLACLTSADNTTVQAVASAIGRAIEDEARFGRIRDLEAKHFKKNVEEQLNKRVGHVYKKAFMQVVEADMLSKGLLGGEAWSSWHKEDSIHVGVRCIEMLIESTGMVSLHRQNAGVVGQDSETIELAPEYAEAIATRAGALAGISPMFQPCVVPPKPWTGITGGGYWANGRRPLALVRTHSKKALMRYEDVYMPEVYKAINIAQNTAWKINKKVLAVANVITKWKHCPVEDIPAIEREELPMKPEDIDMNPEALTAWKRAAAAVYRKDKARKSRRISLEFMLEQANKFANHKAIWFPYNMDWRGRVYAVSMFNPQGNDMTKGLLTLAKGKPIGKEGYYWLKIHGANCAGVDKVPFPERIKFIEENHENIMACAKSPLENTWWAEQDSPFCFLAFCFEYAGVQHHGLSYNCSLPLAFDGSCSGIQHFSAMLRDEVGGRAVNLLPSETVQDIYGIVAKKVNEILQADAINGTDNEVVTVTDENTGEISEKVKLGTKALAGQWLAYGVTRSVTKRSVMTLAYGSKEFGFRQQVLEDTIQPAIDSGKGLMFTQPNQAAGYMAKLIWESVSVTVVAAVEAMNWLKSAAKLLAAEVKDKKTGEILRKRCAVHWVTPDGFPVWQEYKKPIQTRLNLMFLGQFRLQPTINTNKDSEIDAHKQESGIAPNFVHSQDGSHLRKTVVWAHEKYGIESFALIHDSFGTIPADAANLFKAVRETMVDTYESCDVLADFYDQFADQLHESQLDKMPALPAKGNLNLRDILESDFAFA
Sequence of Calf primase of pol α (A0AAA9THK8 entry or part of it): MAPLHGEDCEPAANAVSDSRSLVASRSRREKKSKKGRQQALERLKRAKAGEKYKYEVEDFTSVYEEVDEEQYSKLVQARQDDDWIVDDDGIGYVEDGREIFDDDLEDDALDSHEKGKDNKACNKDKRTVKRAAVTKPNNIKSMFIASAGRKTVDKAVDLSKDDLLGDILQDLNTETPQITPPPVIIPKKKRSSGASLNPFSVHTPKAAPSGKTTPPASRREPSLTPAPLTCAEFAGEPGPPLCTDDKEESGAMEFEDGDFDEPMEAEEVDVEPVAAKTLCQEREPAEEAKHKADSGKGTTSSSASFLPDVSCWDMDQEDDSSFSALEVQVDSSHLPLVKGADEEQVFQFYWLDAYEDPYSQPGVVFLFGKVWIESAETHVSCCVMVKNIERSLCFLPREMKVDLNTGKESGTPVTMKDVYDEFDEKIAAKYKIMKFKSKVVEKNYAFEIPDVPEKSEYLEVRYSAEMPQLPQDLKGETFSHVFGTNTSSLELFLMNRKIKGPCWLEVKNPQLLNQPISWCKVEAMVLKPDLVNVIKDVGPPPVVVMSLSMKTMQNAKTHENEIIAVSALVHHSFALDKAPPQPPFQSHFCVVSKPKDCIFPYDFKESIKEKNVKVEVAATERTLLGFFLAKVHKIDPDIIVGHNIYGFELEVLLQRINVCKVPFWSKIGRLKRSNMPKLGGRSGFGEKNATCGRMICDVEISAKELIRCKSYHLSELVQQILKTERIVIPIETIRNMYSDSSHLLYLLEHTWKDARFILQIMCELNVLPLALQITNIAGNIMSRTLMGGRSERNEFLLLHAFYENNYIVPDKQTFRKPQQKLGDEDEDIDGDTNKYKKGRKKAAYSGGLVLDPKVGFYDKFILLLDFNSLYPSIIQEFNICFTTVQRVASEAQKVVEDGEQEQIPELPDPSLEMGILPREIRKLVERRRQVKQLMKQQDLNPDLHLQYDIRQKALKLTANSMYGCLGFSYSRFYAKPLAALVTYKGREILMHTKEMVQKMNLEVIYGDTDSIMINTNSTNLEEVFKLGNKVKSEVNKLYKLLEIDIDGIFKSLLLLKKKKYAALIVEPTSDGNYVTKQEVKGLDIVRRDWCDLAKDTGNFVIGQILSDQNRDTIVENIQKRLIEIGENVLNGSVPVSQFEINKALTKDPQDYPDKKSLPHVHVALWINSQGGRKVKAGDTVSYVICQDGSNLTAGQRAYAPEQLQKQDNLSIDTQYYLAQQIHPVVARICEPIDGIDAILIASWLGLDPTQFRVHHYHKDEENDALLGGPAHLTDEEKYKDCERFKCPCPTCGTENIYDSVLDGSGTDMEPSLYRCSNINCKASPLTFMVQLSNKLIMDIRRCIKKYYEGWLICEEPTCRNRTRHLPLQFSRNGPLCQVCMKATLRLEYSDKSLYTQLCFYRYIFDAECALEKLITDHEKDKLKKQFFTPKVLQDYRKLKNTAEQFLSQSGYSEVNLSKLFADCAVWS
Sequence of Calf primase of pol α (A0JNF4 entry or part of it, further chain): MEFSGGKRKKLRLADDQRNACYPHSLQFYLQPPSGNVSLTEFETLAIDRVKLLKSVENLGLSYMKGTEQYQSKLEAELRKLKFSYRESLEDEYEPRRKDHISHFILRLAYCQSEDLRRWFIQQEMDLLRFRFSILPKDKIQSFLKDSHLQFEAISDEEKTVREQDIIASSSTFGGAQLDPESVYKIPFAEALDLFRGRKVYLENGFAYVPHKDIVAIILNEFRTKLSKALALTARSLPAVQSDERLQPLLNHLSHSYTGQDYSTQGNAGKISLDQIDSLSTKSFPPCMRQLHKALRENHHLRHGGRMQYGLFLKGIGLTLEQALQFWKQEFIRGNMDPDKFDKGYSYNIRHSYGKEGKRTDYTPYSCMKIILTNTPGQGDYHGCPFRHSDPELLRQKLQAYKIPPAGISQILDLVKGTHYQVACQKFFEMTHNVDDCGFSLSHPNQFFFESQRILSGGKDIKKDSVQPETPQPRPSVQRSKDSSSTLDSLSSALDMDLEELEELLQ
Sequence of Calf primase of pol α (A0A3Q1MF00 entry or part of it): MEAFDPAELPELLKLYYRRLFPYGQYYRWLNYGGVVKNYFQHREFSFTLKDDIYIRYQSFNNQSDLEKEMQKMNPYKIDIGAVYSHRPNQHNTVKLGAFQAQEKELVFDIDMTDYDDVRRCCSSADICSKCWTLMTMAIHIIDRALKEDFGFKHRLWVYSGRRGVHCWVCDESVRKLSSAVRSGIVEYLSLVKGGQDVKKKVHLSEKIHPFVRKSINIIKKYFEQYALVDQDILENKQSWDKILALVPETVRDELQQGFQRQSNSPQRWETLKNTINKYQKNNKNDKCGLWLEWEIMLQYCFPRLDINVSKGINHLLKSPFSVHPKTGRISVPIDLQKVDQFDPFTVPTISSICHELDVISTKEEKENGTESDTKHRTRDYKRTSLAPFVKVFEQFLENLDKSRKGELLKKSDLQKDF
Sequence of Calf primase of pol α (Q58D13 whole entry, further chain): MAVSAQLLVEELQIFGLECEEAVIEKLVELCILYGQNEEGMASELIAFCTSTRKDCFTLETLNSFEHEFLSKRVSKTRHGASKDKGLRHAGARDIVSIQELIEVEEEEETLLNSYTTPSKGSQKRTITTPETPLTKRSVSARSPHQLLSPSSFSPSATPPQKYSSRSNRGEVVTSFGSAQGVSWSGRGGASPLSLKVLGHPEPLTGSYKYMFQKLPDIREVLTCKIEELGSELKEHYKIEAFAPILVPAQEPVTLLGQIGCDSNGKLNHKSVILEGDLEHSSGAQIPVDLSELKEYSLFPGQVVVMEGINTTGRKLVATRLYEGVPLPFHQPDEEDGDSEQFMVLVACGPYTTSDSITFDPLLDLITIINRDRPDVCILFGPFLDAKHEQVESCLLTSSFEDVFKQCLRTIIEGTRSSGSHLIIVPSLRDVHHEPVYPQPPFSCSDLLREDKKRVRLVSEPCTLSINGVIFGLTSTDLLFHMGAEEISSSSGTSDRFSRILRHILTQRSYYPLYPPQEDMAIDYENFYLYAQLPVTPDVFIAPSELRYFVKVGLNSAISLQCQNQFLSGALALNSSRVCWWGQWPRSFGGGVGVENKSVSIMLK

Turning to `CCCCCCCC/C=C\CCCCCCCC(=O)Oc1cccc2c1C(=O)C=C(C)C2=O` [2f, 5-O-oleoyl-2-methyl-1,4-naphthoquinone], the IC50 was 10.6 ± 0.5 µM in experiment [1]; above 100 µM in experiment [2] (0.05 units enzyme); above 100 µM in experiment [3] (0.05 units enzyme); above 100 µM in experiment [4] (0.05 units enzyme); above 100 µM in experiment [5] (0.05 units enzyme); above 100 µM in experiment [6] (0.05 units enzyme). For the same molecule, the IC50 in experiment [7] (B family of pols, read-out: 50% inhibition dose) was in the range of 4.8 to 5.3 µM; in experiment [7] (X family of pols, read-out: 50% inhibition dose), 9.2 to 10.6 µM; in experiment [7] (Y family of pols, read-out: 50% inhibition dose), 7.6 to 8.2 µM; in experiment [7] (all of the mammalian pols (11 species), read-out: IC50 values), 4.5 to 10.6 µM. The “effect on enzyme activity (in words)” value in experiment [2], in experiment [3], in experiment [4], in experiment [5] and in experiment [6] was “did not inhibit” in each case. The “inhibitory effect on A and B families of pols, fold stronger than on X and Y families” value in experiment [7] is on record as 1.5- to 2 fold. Also, the “influence of excess poly(rC) and BSA on pol inhibition” value in experiment [7] (data not shown) is recorded as “little or no influence”. The “pol inhibitory activity, fold more potent than aphidicolin” value in experiment [7] (pols α, δ and ε, versus aphidicolin IC50 of ref 45) was above 2 fold. In addition, the “anti-tumor effect, fold stronger than the other compounds tested” value in experiment [8] (5 mg/kg, versus vitamin K3, juglone, C18:1-acyl juglone) is above 3 fold. Besides, in experiment [8] (at 40 days, 5 mg/kg subcutaneously in PBS, versus PBS control, n = 6), the “decreased rates of tumor volume” value worked out at 30.5%.
